From patent publication US20050090517A1, “Pharmaceutical combinations of cox-2 inhibitors and opiates” (priority 2002, published 2005)
Where two headings read alike, the source gives them in different places.

Columns and labels:
[1] = system: noxious ischaemia to the tail of Sprague-Dawley rats; assay: Nociception during noxious ischaemia of the rat tail (tourniquet, escape latency); type: in vivo; details: median (95% confidence interval), n=10, cut-off 30 min
Experimental: Sprague-Dawley rats (Rattus norvegicus) both genders weighing 250-450 g were used for nociceptive tests. The rats were housed individually at an ambient temperature of 21-23° C. on a 12-hour light; 12-hour dark cycle, and were allowed free access to standard rat chow and tap water. Groups of ten rats were used for each test. Rats were returned to stock, and in good health, after the tests.
Ischaemia was induced by applying an inflatable tourniquet to the base of the restrained rat's tail, as detailed previously (Gelgor et al., 1992). […] The time between application of the tourniquet and the escape response, that is the escape latency, is a measure of sensitivity to the noxious stimulus induced by ischaemia. To prevent tissue damage, the tourniquet was removed if the rat had not responded within 30 min.
(§1) The tail flick latency (mean of three measurements, 1 min apart) was measured and then the agent under test was administered. Thirty minutes later the tourniquet (or sham tourniquet) was applied and the escape latency measured. Immediately after release of the tourniquet, the tail flick latency was again measured, and the measurements were repeated after 30 and 60 min of reperfusion. Following inspection of the data at all three periods of reperfusion, the investigations elected to base their assessment of antihyperalgesic activity on data obtained immediately after release of the tourniquet.
Paracetamol, meloxicam and codeine phosphate were provided by the applicant. Codeine phosphate was dissolved in water. Meloxicam was dissolved in sunflower oil. Paracetamol was suspended in sunflower oil. All three agents were administered in boluses of 0.2 ml, and the paracetamol suspension was flushed with water. In control experiments, the appropriate vehicle (water, sunflower oil, or both) was administered.
Each agent was administered separately, at three doses, to determine the antinociceptve activity, if any, of each independently. Pairs of agents then were administered at three doses for each pair. Finally, the combination of the three agents was administered, at three doses. […]

[2] = system: reperfusion hyperalgesia of the tail of Sprague-Dawley rats; assay: Reperfusion hyperalgesia of the rat tail following transient ischaemia (tail flick latency, antihyperalgesic index); type: in vivo; details: for ED50: Rattus norvegicus, read-out: ED50 (dose at which reperfusion hyperalgesia is reduced by 50%), agent separately
Experimental: Sprague-Dawley rats (Rattus norvegicus) both genders weighing 250-450 g were used for nociceptive tests. The rats were housed individually at an ambient temperature of 21-23° C. on a 12-hour light; 12-hour dark cycle, and were allowed free access to standard rat chow and tap water. Groups of ten rats were used for each test.
The response of the rats to a noxious thermal stimulus was measured using a modified tail flick test, the details of which have previously been described (Gelgor et al., 1992). The rat's tail was submerged in a water bath controlled at 49° C., and the time to the first coordinated motor response of the tail measured, with a safety cut-off at 30 s. Tail skin temperature was maintained at 29° C. by placing all but the proximal 20 mm of the rat's tail in a temperature-controlled bath, before and between measurements, to obviate the potential confounding effects of changes in tail temperature on tail flick latency (Tjolsen et al., 1989).
The hyperalgesia which occurs during reperfusion of the tail following transient ischaemia, that is following the release of the tourniquet mentioned above, was measured by comparing the tail flick latency during reperfusion with that measured in the same animal before application of the tourniquet. Hyperalgesia is manifest as a reduced tail flick latency during reperfusion, and lasts about one hour (Gelgor et al., 1992).
as §1
Codeine phosphate was dissolved in water. Meloxicam was dissolved in sunflower oil. Paracetamol was suspended in sunflower oil. All three agents were administered in boluses of 0.2 ml, and the paracetamol suspension was flushed with water. In control experiments, the appropriate vehicle (water, sunflower oil, or both) was administered.
Each agent was administered separately, at three doses, to determine the antinociceptve activity, if any, of each independently. Pairs of agents then were administered at three doses for each pair. Finally, the combination of the three agents was administered, at three doses. In all cases, the ratio of the agents was fixed at 1 meloxicam: 4 codeine: 266 paracetamol.
Antihyperalgesia is measured by the extent to which an agent reverses the hyperalgesia induced by conditioning event, which, in the test case, was transient ischaemia. An antihyperalgesic index of zero means complete lack of antihyperalgesic activity, an index of 100% means full reversal of the hyperalgesia, and an index of more than 100% implies some analgesic activity added to the antihyperalgesic activity.

[3] = oral, single agent, least-squares regression, n=9 or 10, immediately after release of tourniquet

Row | Structure (SMILES) | Escape latency (min), Agent ([1]; codeine 20 mg/kg oral 30 min earlier) | ED50 ([2]; po) [mg/kg] | Escape latency (min), Agent ([1]; meloxicam 5 mg/kg oral 30 min earlier) | ED50 [2, 3] [mg/kg] | Escape latency (min), Agent ([1]; paracetamol 266 mg/kg oral 30 min earlier) | Antihyperalgesic activity of each agent administered separately, in words ([2]; oral, three doses each (FIG. 2), paracetamol limited to 266 mg/kg) | Antihyperalgesic activity of the agent on its own at its dose in the ED50 of the triple combination, in words ([2]; rat, in vivo)
1 | COc1ccc2c3c1O[C@H]1[C@@H](O)C=C[C@H]4[C@@H](C2)N(C)CC[C@@]341 [Codeine, codeine phosphate] | 20.9 (11.9-30.0) min | 2.4 | – | – | – | – | –
2 | Cc1cnc(NC(=O)C2=C(O)c3ccccc3S(=O)(=O)N2C)s1 [Meloxicam, meloxicam] | – | – | 25.3 (15.7-30.0) min | 2.6 | – | – | –
3 | CC(=O)Nc1ccc(O)cc1 [Paracetamol, paracetamol] | – | – | – | > 266 | 18.2 (9.2-30.0) min | did not exhibit any antihyperalgesic activity | no antihyperalgesic activity
